Read-outs that look alike come from different tables or passages of the source.
Assays:
[1] = cited from earlier work
[2] = cited from earlier work; remark: listed apart in the source
[3] = cited from earlier work; remark: listed apart in the source
HT29 colon cancer cells = experiment: Viability of HT29 tumor cells (PI staining); type: cell-based; conditions: 24-hour exposure
Method: (§1) In another example, the effect of CXCR4 antagonists on the survival of NB4, HL60, Jurkat leukemic cells and HT29 colon cancer and prostate tumor cells was examined.
(§2) Following the incubation, the cells were stained with propidium iodide (PI) (Sigma, St. Louis, Mo.) and percent of viable PI-negative cells in culture was determined by FACScalibur analysis (Becton Dickinson Immunocytometry Systems), using CellQuest software.
as §2

[4] = tested on: NB4, HL60, Jurkat leukemic cells; experiment: Viability of leukemic cells (PI staining, FACS); type: cell-based, human; conditions: 24 hours
Method: as §1, §2, §2

murine melanoma = conditions: 5 mg/kg; cited from earlier work
[5] = tested on: mammary carcinoma of mice; conditions: intraperitoneal, 75 mg/kg; cited from earlier work
mice = conditions: cited from earlier work
thymidine kinase = conditions: colon cancer cells; cited from earlier work
thymidylate synthase = conditions: colon cancer cells; cited from earlier work
[6] = tested on: hemolytic plaque forming cells in the spleens of mice; conditions: cited from earlier work
[7] = tested on: central stimulation in mice and rats; conditions: oral administration; cited from earlier work

For `O=C1c2cc(CO)cc(O)c2C(=O)c2c(OC3OC(CO)C(O)C(O)C3O)cccc21` (centres unmarked) [Aloe-emodin-8-glycoside], the “ED50 (oral purgative)” value [1] is given as 71.6 mg/kg.
For `O=C1c2cccc(O)c2C(=O)c2c(O)cc(CO)cc21` [Aloe-emodin], the half-life [2] is given as “about 78 min”.
For `CC1=CCC(C(C)(C)O)CC1` (stereo not drawn) [Alpha-terpineol], the half life [2] is given as “about 1.245 hours”.
For `OCC1=C[C@@H](O)[C@@H]2C=CO[C@@H](O[C@@H]3O[C@H](CO)[C@@H](O)[C@H](O)[C@H]3O)[C@H]12` [Aucubin], the half life [2] is listed as “about 42.5 minutes”.
For `Cc1ccc(C(C)C)cc1O` [Carvacrol], the half life [2] is given as “about 1.29 hours”.
In the case of `CCC(=O)O[C@]1(C(=O)CCl)[C@@H](C)C[C@H]2[C@@H]3CCC4=CC(=O)C=C[C@]4(C)[C@@]3(F)[C@@H](O)C[C@@]21C` [Clobetasol propionate], the solubility in water [3] is given as “insoluble in water”.
For `C[C@H]1O[C@@H](O[C@H]2[C@@H](O)C[C@H](O[C@H]3[C@@H](O)C[C@H](O[C@H]4CC[C@@]5(C)[C@H](CC[C@@H]6[C@@H]5C[C@@H](O)[C@]5(C)[C@@H](C7=CC(=O)OC7)CC[C@]65O)C4)O[C@@H]3C)O[C@@H]2C)C[C@H](O)[C@@H]1O` [Digoxin, reference compound], the half life [2] is given as “around 36 hours” and the “effect on HT29 tumor cells” value (HT29 colon cancer cells) is given as “partial however significant effect”.
For `Cc1cc(O)c2c(c1)C(=O)c1cc(O)cc(O)c1C2=O` [Emodin], the “ED50 (oral purgative)” value [1] is given as >500 mg/kg, the “concentrations inhibiting the growth of leukemic cells” value [4] is given as “more than 5 microgram/ml” and the half-life [2] is given as “approximately 227 min”. The “inhibition rate against murine melanoma” value (murine melanoma) was 73%, the “inhibition against mammary carcinoma” value [5] was 45% and the LD50 (mice) was 0.56 g/k″g. The “effect on HT29 tumor cells” value (HT29 colon cancer cells) was “partial however significant effect”.
In the case of `CC(C)=CCC/C(C)=C/CO` [Geraniol], the “reduction of thymidine kinase expression” value (thymidine kinase) is given as 2 fold and the “reduction of thymidylate synthase expression” value (thymidylate synthase) is given as 2 fold.
For `O=c1cc(-c2ccc(O)c(O)c2)oc2cc(O)cc(O)c12` [Luteolin], the half life [2] is given as “about 1.2 hours”.
In the case of `COc1cc(O)c2c(c1)C(=O)c1cc(C)cc(O)c1C2=O` [Physcion], the “ED50 (oral purgative)” value [1] is given as >500 mg/kg.
For `COc1ccc(/C=C/c2cc(O)cc(O[C@@H]3O[C@H](CO)[C@@H](O)[C@H](O)[C@H]3O)c2)cc1O` [Rhapontin], the half life [2] is given as “about 23.5 minutes”.
For `O=C(O)c1cc(O)c2c(c1)C(=O)c1cccc(O[C@@H]3O[C@H](CO)[C@@H](O)[C@H](O)[C@H]3O)c1C2=O` [Rhein-8-glucoside], the “ED50 (oral purgative)” value [1] is given as 20.0 mg/kg.
For `O=C(O)c1cc(O)c2c(c1)C(=O)c1cccc(O)c1C2=O` [Rhein], the half-life [2] is given as “about 205 min”.
For `O=C(O)c1cc(O)c2c(c1)[C@H]([C@H]1c3cc(C(=O)O)cc(O)c3C(=O)c3c(O[C@@H]4O[C@H](CO)[C@@H](O)[C@H](O)[C@H]4O)cccc31)c1cccc(O[C@@H]3O[C@H](CO)[C@@H](O)[C@H](O)[C@H]3O)c1C2=O` [Sennoside A], the “ED50 (oral purgative)” value [1] is listed as 13.5 mg/kg.
For `O=C(O)c1cc(O)c2c(c1)[C@@H]([C@H]1c3cc(C(=O)O)cc(O)c3C(=O)c3c(O[C@@H]4O[C@H](CO)[C@@H](O)[C@H](O)[C@H]4O)cccc31)c1cccc(O[C@@H]3O[C@H](CO)[C@@H](O)[C@H](O)[C@H]3O)c1C2=O` [Sennoside B], the “ED50 (oral purgative)” value [1] is listed as 13.9 mg/kg.
In the case of `O=C(O)c1cc(O)c2c(c1)[C@H]([C@H]1c3cc(CO)cc(O)c3C(=O)c3c(O[C@@H]4O[C@H](CO)[C@@H](O)[C@H](O)[C@H]4O)cccc31)c1cccc(O[C@@H]3O[C@H](CO)[C@@H](O)[C@H](O)[C@H]3O)c1C2=O` [Sennoside C], the “ED50 (oral purgative)” value [1] is listed as 13.3 mg/kg.
In the case of `O=C(O)c1cc(O)c2c(c1)[C@H]([C@@H]1c3cc(CO)cc(O)c3C(=O)c3c(O[C@@H]4O[C@H](CO)[C@@H](O)[C@H](O)[C@H]4O)cccc31)c1cccc(O[C@@H]3O[C@H](CO)[C@@H](O)[C@H](O)[C@H]3O)c1C2=O` [Sennoside D], the “ED50 (oral purgative)” value [1] is listed as 13.8 mg/kg.
In the case of `O=C(O)C(=O)OC[C@H]1O[C@@H](Oc2cccc3c2C(=O)c2c(O)cc(C(=O)O)cc2[C@@H]3[C@H]2c3cc(C(=O)O)cc(O)c3C(=O)c3c(O[C@@H]4O[C@H](CO)[C@@H](O)[C@H](O)[C@H]4O)cccc32)[C@H](O)[C@@H](O)[C@@H]1O` [Sennoside E], the “ED50 (oral purgative)” value [1] is given as 13.5 mg/kg.
For `O=C(O)C(=O)OC[C@H]1O[C@@H](Oc2cccc3c2C(=O)c2c(O)cc(C(=O)O)cc2[C@@H]3[C@@H]2c3cc(C(=O)O)cc(O)c3C(=O)c3c(O[C@@H]4O[C@H](CO)[C@@H](O)[C@H](O)[C@H]4O)cccc32)[C@H](O)[C@@H](O)[C@@H]1O` [Sennoside F], the “ED50 (oral purgative)” value [1] is given as 16.1 mg/kg.
For `COc1cc(C(=O)O)ccc1O` [Vanillic acid], the half life [2] is listed as “about 10.552 hours”.
In the case of `C[C@@H]1O[C@@H](O[C@@H]2[C@@H](O)[C@H](OCCc3ccc(O)c(O)c3)O[C@H](CO)[C@H]2OC(=O)/C=C/c2ccc(O)c(O)c2)[C@H](O)[C@H](O)[C@H]1O` [acetoside], the “suppression of hemolytic plaque forming cells” value (shortened to “suppression”) ([6]; oral dose of 100 mg/kg) is given as 18%.
For `O=C(/C=C/c1ccc(O)c(O)c1)O[C@@H]1C[C@](O)(C(=O)O)C[C@@H](O)[C@H]1O` [chlorogenic acid], the “potency of central stimulation relative to caffeine” value [7] is given as 1/6.
For `O=P1(N(CCCl)CCCl)NCCCO1` (centres unmarked) [cyclophosphamide, reference compound], the “suppression” value ([6]; intraperitoneal dose of 30 mg/kg) is given as 52.5%.
For `CC[C@H](CC[C@@H](C)[C@H]1CC[C@H]2[C@@H]3CC=C4C[C@@H](O)CC[C@]4(C)[C@H]3CC[C@]12C)C(C)C` [β-sitosterol], the half life [2] is given as “about 0.966 hours”.
In the case of Emodin monoglucoside, the “ED50 (oral purgative)” value [1] is given as 103.6 mg/kg.
In the case of jionoside B, the “suppression” value ([6]; oral dose of 100 mg/kg) is given as 36%.

— patent US20170049688A1, “Herbal Combinations For Treating Psoriasis” (Sirbal Ltd., priority 2015, published 2017)
